How the values were obtained:
[1] = tested on: Mus musculus; assay: Locomotor activity (no. light beam crossings in 50 min) in mice by intravenous dose at 55 umol/kg; format: functional
[2] = Compound was tested for it's acute toxicity in mice when given orally.; format: organism-based; details: mouse, in vivo, po
[3] = species on record: Rattus norvegicus; assay: (§1) Inhibition of carbachol induced tracheal contraction; format: functional; details: Trachea, read-out: ED50 (the source's name)
[4] = molecular target: Heart phosphodiesterase (Bos taurus, UniProt Q01061+P14100+E1BN64); assay: Inhibition of bovine heart phosphodiesterase; format: protein assay
[5] = species on record: Rattus norvegicus; assay: Inhibition of spontaneous contraction of isolated rat uterus; format: functional; details: read-out: ED50 (the source's name)
[6] = tested on: Mus musculus; assay: Locomotor activity (no. light beam crossings in 50 min) in mice by intravenous dose at 166 umol/kg; format: functional
[7] = species on record: Cavia porcellus; assay: as §1; format: functional; details: Trachea, read-out: ED50 (the source's name)
[8] = Compound was tested for its acute toxicity in mice when given orally.; format: organism-based; details: mouse, in vivo, po

Structure (SMILES)	Activity [1] [%]	LD50 [2] [µmol/kg]	EC50 [3] [µM]	IC50 [4] [µM]	EC50 [5] [µM]	Activity [6] [%]	EC50 [7] [µM]	LD50 [8] [µmol/kg]
Nc1nc(Br)cn2ccnc12	-53	1300	93	267	300	-83	–	–
CNc1nc(Br)cn2cc(C#N)nc12	-64	500	2	70	2	–	–	–
CNc1nc(Br)cn2ccnc12	-75	2200	24	27	160	-83	–	–
CCNc1nc(Br)cn2ccnc12	-13	2900	65	81	130	-73	–	–
CNc1nccn2c(Br)cnc12	-25	–	–	337	100	-57	97	4200
Cn1c(=O)c2nc[nH]c2n(C)c1=O.O [THEOPHYLLINE]	130	1900	920	92	900	170	–	–

— ChEMBL document CHEMBL1126116, “Synthesis and antibronchospastic activity of 8-alkoxy- and 8-(alkylamino)imidazo[1,2-a]pyrazines” (J Med Chem, 1992)
